Data: patent publication US9867811B2, “Method of treating atherosclerosis in high triglyceride subjects” (NOVARTIS AG, priority 2011, dated 2018)
Read-outs that look alike come from different tables or passages of the source.

Legend:
[1] = target: T1, CETP (Homo sapiens, UniProt P11597); experiment: In vitro CETP activity assay in human plasma (serum pools of differing triglyceride level); type: biochemical; settings: for IC50: human serum pool
T1 construct: Human serum samples were obtained from the Novartis Institutes for BioMedical Research donor program; tissue Novartis donor program; Bioreclamation (Westbury, N.Y.); Uniglobe (Reseda, Calif.); host or cells: pooled human donor serum
T1 sequence (P11597 18-493): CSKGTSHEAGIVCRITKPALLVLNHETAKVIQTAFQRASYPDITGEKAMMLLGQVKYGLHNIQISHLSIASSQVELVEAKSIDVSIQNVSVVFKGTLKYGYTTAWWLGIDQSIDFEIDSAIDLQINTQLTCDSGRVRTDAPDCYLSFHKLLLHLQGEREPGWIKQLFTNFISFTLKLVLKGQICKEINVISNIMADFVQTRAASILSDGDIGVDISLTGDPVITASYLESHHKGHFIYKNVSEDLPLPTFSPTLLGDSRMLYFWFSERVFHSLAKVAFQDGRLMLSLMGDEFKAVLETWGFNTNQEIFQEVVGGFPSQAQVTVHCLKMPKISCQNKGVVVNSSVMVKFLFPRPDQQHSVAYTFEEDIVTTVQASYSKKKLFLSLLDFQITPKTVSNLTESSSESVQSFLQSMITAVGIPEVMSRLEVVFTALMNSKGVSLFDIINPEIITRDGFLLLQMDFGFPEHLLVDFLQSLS
Method: Pro-apoA-1 containing microemulsion as a donor particle was prepared following previous report (J. Biol. Chem., 280:14918-22). Glyceryl trioleate (500 ug, Sigma-Aldrich, Cat. No. T7140), 3-sn-phosphatidylcholine (4680 ug, Sigma, Cat. No. P2772), and cholesteryl BODIPY FL 012 (2 mg, Invitrogen, CA, Cat. No. C-3927MP) were dissolved in 1.5 mL of chloroform. The solution was evaporated, and residual solvent was removed under vacuum for more than 1 hr at room temperature. The dried lipid mixture was dissolved in 7 ml of the assay buffer (50 mM Tris-HCl (pH 7.4) containing 150 mM NaCl and 2 mM EDTA) and sonicated in water bath for 1 hr. The solution was split into two tubes of 3.5 ml each. Each tube was sonicated at 50° C. with a microtip (MICROSON™ ULTRASONIC CELL DISRUPTOR, Misonix, Farmingdale, N.Y.) at output power 006 for 10 min (every other 25 seconds). The solution was cooled to 40° C. and 400 ug of pro-apoA-1 was added to each tube (total volume of 4 mL). Then, the solution was sonicated at output power 004 for 20 min (every other 30 seconds). Final Concentration: Glyceryl Tiroleate: 62.5 ug/ml, PC: 585 ug/ml, Bodipy CE: 250 ug/ml, Pro-apoA-1: 100 ug/ml. Centrifuge solution at 5200×g for 5 minutes and store the supernatant at 4′C.
Human serum samples were obtained from the Novartis Institutes for BioMedical Research donor program (normal triglyceride samples) or purchased from Bioreclamation (Westbury, N.Y.) or Uniglobe (Reseda, Calif.). General requirements for human serum donors included: male gender, 20-55 years of age, not currently on a lipid altering medication, non-fasting at time of blood collection, and a total cholesterol level between 200-300 mg/dL. Donor samples were selected primarily on the basis of serum triglyceride level, using the following classifications: normal triglycerides (<150 mg/dL); high triglycerides (300-500 mg/dL); and very high triglycerides (750-1200 mg/dL). A total of 4 individual serum samples from each classification were used in these experiments. For each of the 3 triglyceride classifications, two serum sample pools were prepared. The mean plasma triglyceride concentrations (mg/dL) for the pools were: Normal: 101.35; High: 347.5; Very high 1, 868.45; Very high 2, 1269.35.
Donor solution is prepared by a dilution of donor microemulsion with assay buffer (1.7 ul donor+8.3 ul Buffer). Human serum (25 μL), assay buffer (14 μL) and 50× test compound dissolved in 100% dimethylsulfoxide (1 μL) are added to each well of 384 well black, clear-bottom plate (NUNC. Thermo Fisher #242764). The reaction is started by the addition of donor solution (10 μL) into each well. Fluorescence intensities are measured every 10 min at 37° C. with excitation wave length of 485 nm and emission wavelength of 515 nm over an 80 minute period, using a SpectraMax M5 from Molecular Devices (Sunnyvale, Calif.). The CETP activity (RFU/min) is defined as the change of fluorescence intensity from 40 to 70 min. Percent CETP inhibition is calculated as follows: ((100% Act−Wellcmpnd)/100% Act))*100. IC50 values were calculated with GraphPad Prism 5 software.

[2] = Plasma drug concentration in cynomolgus monkeys on chow or high carbohydrate diet; type: in vivo; settings: Example 8 3 mg/kg, Anacetrapib 10 mg/kg, mean ± SD; for Plasma [drug] ng/mL, Day 7, Chow / Plasma [drug] ng/mL, Day 14, Chow: chow diet; for Plasma [drug] ng/mL, Day 7, Chow / Plasma [drug] ng/mL, Day 7, High CHO: day 7, daily oral; for Plasma [drug] ng/mL, Day 14, Chow / Plasma [drug] ng/mL, Day 14, High CHO: day 14, daily oral; for Plasma [drug] ng/mL, Day 7, High CHO / Plasma [drug] ng/mL, Day 14, High CHO: high carbohydrate diet
Description: (§1) Normal male cynomolgus monkeys (n=17) weighing between 8-14 kg are placed on a high-carbohydrate, low-fat diet. The caloric composition of the diet is approximately 13.4% protein, 79.1% carbohydrate (sugar to starch ratio 50:50) and 7.5% fat. Calories are derived from standard monkey chow (LabDiet® 5047, PMI, Richmond, Ind. or LabDiet® 5000, Balanced Fiber diet, PMI, Richmond, Ind.) in quantities necessary to meet the protein and fat requirements, with the remaining calories provided by sugar-sweetened cereals, candies, and fruit (banana, orange, cantaloupe, honeydew, pineapple). The high-carbohydrate (CHO) diet will be fed for 18 days (4 days of pre-drug diet, 14 days of drug treatment), after which time they will return to their regular chow diets for a 14 day washout period followed by a second 14 day dosing phase of the study (normal diet).
(§2) Compound of Example 8 is dissolved at 30 mg/mL in 1M NaOH+ethanol:maisoel glyceride:propylene glycol:cremophor RH40 (10:36:9:45) and diluted 1:10 in ddH2O. […] The formulations are prepared each day (weekend doses are prepared on Friday) and stored stirring and protected from light at room temperature until dosing. Artificial flavor and color will be added to the dose when prepared.
(§3) The animals will ingest the compounds (1 mL/kg) voluntarily from a plastic syringe offered at their home cage at approximately 8 am daily. Animals will be fed 60 minutes after the dose is administered.
(§4) Blood collection will take place weekly during each dosing phase. Animals are fasted overnight (approximately 16 hours) prior to blood collection. Blood samples are collected from a saphenous vein via needle and syringe and put into 2 mL EDTA-coated tubes that are immediately placed on ice until centrifugation. Samples are centrifuged at 3,000 rpm for 20 minutes. The plasma is collected, divided into aliquots (listed below), and stored at −70° C. until analysis.

[3] = HDL-C in cynomolgus monkeys on chow or high carbohydrate diet; type: in vivo; settings: Anacetrapib 10 mg/kg, mean ± SD; for HDL-C % Δ vs day 0, Day 7, Chow / HDL-C % Δ vs day 0, Day 14, Chow: chow diet; for HDL-C % Δ vs day 0, Day 7, Chow / HDL-C % Δ vs day 0, Day 7, High CHO: day 7, Example 8 3 mg/kg; for HDL-C % Δ vs day 0, Day 14, Chow / HDL-C % Δ vs day 0, Day 14, High CHO: day 14, Example 8 3 mg/kg; for HDL-C % Δ vs day 0, Day 7, High CHO / HDL-C % Δ vs day 0, Day 14, High CHO: high carbohydrate diet
Description: as §1, §2, §3, §4

Retention of CETP inhibitory activity in plasma from hypertriglyceridemic human subjects ([1]; in vitro, plasma from subjects with elevated triglycerides) | Plasma [drug] ng/mL, Day 7, Chow [2] [ng/mL] | Plasma [drug] ng/mL, Day 14, Chow [2] [ng/mL] | Plasma [drug] ng/mL, Day 7, High CHO [2] [ng/mL] | Plasma [drug] ng/mL, Day 14, High CHO [2] [ng/mL] | IC50 ([1]; TG = 101.35 mg/dL (normal), read-out: CETP IC50 (nM) TG = 101.35 mg/dL) [nM] | IC50 ([1]; TG = 374.5 mg/dL (high), read-out: CETP IC50 (nM) TG = 374.5 mg/dL) [nM] | IC50 ([1]; TG = 1269.35 mg/dL (very high 2), read-out: CETP IC50 (nM) TG = 1269.35 mg/dL) [nM] | SMILES | HDL-C % Δ vs day 0, Day 7, Chow [3] [%] | HDL-C % Δ vs day 0, Day 14, Chow [3] [%] | HDL-C % Δ vs day 0, Day 7, High CHO [3] [%] | HDL-C % Δ vs day 0, Day 14, High CHO [3] [%]
does not retain its potency | 272 ± 74 | 320 ± 93 | 1836 ± 3694 | 1437 ± 2935 | – | – | – | COc1cc(F)c(C(C)C)cc1-c1ccc(C(F)(F)F)cc1CN1C(=O)O[C@H](c2cc(C(F)(F)F)cc(C(F)(F)F)c2)[C@@H]1C [Anacetrapib, reference compound] | 141 ± 45 | 136 ± 28 | 172 ± 34 | 184 ± 45
– | 983 ± 408 | 1015 ± 398 | 1706 ± 949 | 1709 ± 800 | 88.4 | 51.9 | 61.4 | CC[C@@H]1C[C@H](N(Cc2cc(C(F)(F)F)cc(C(F)(F)F)c2)c2ncc(-c3cnn(C)c3)cn2)C[C@H](CC)N1C(=O)O[C@H]1CC[C@H](C(=O)O)CC1 [Example 8] | 144 ± 57 | 142 ± 33 | 210 ± 24 | 241 ± 29
